{"source": "patent US20220031684A1", "about": "“PROPHYLACTIC EFFICACY OF SEROTONIN 4 RECEPTOR AGONISTS AGAINST STRESS” (THE TRUSTEES OF COLUMBIA UNIVERSITY IN THE CITY OF NEW YORK, priority 2019, published 2022)", "key": {"[1]": {"system": "BALB/cJRj mice", "test": "Elevated plus maze (EPM), acute anxiolytic-like effect", "format": "in vivo", "conditions": "acute systemic administration; fluoxetine 18 mg/kg i.p.", "procedure": "(§1) RS67333 (1.5 mg/kg, i.p.), diazepam (1.5 mg/kg, i.p.), fluoxetine (18 mg/kg, i.p.) were injected 45 min before testing in the Elevated Plus Maze (EPM), the Novelty Suppressed Feeding (NSF) or the Open Field (OF) in three independent cohorts of male BALB/cJRj mice.\n(§2) To ensure the selectivity of the anxiolytic-like effects of RS67333, in a new cohort of male BALB/cJRj mice, GR125487 (1.0 mg/kg, i.p.) dissolved in 0.9% NaCl solution, was injected 15 minutes before RS67333 administration (1.5 mg/kg, i.p.). EPM or NSF occurred 45 min after RS67333 administration (A-S1). Behavioral consequences of the co-administration of GR125487+RS67333 were compared to RS67333 alone, diazepam (1.5 mg/kg, i.p.) fluoxetine (18 mg/kg, i.p.) and vehicle groups (0.9% saline solution, i.p.).\n(§3) For mPFC drug infusion, two bilateral cannulae (75 μm-diameter silica capillary tubing inserted in 27G stainless steel catheter) were implanted in the mPFC [stereotaxic coordinates in mm from bregma: A=+2.10, L=±0.50, V=−2.60, A, anterior; L, lateral; and V, ventral, according to (A-S10)] under anesthesia (chloral hydrate, 400 mg/kg, i.p.). […] Diazepam (1.5 mg/kg) was used as a positive control.\nIn a new cohort of male BALB/cJRj mice, p-CPA was administered twice daily (at 0900 and 1700 h) for 3 consecutive days. RS67333 ([…]) and diazepam ([…]) were then intra-mPFC administered 24 h after the final p-CPA administration and behavioral test (EPM) occurred 45 minutes after local infusion.\nThe EPM is a widely used behavioral assay for rodents and it has been validated to assess the anti-anxiety effects of pharmacological agents (A-S11). This test was performed as described by (A-S1). The maze is a plus-cross-shaped apparatus, with two open arms and two arms closed by walls linked by a central platform 50 cm above the floor. Mice were individually put in the center of the maze facing an open arm and were allowed to explore the maze during 5 min for the behavioral consequences of an acute systemic administration or mPFC infusion and during 6 min for the optogenetic experiments. The time spent in and the numbers of entries into the open arms were used as an anxiety index. All parameters were measured using a videotracker (EPM3C, Bioseb, Vitrolles, France)."}, "[2]": {"system": "C57BL/6NTac mice", "test": "Elevated plus maze (EPM) in CORT model", "format": "in vivo", "conditions": "male C57BL/6NTac, Flx 18 mg/kg/day or RS-67,333 1.5 mg/kg/day for 3 weeks prior to CORT", "procedure": "This chronic CORT elevation dysregulates the hypothalamic-pituitary-adrenal axis (HPA) in a manner similar to that observed in clinical depression. The dose and duration of CORT treatment was selected based on previous studies. CORT (35 μg/ml, equivalent to about 5 mg/kg/day) dissolved in 0.45% hydroxypropyl-o-cyclodextrin (0-CD) or vehicle (VEH) (0.45% j-CD) was available ad libitum in the drinking water in opaque bottles to protect it from light. VEH- and CORT-treated water was changed every 3 days to prevent possible degradation. Contextual Fear Conditioning (CFC): A 3-shock CFC procedure was administered as previously published. Briefly, mice were placed into context A and administered 3 2-s shocks (0.75 mA) at 180 s, 240 s or 300 s following placement into context A. Mice were removed from the context 15 s following the termination of shock (at 317 s). For context retrieval, mice were placed back into context A for 300 s. Electrophysiology: Electrophysiology was conducted as previously described. Statistical Analysis: Results from data analyses are expressed as means±SEM. Alpha was set to 0.05 for all analyses. Data were analyzed using GraphPad Prism v7.0 or v8.0. For all experiments, unless otherwise noted, one- or two-way ANOVAs with repeated-measures were applied to the data as appropriate. Significant main effects and/or interactions were followed by Fisher's PLSD post hoc analysis or unpaired t-tests. Drugs: All drugs were prepared in physiological saline and all injections were administered intraperitoneally (i.p.) in volumes of 0.1 cc per […] body weight unless otherwise noted. Fluoxetine hydrochloride (Flx): Flx (BioTrend Chemicals AG, BG197, Zurich, Germany) was administered in the drinking water (18 mg/kg/day) for 3 weeks before the start of CORT. […] (R,S)-ketamine (K): (R,S)-ketamine (Ketaset III, Ketamine HCl injection, Fort Dodge Animal Health, Fort Dodge, Iowa) was administered in a single dose at 30 mg/kg of body weight 1 week before the start of CFC. […] PF-04995274: PF-04995274 (Sigma, Catalog No. 1331782-27-4, St. Louis, Mo.) was administered a single dose at 3 or 10 mg/kg of body weight 1 week before the start of CFC. PF-04995274 was dissolved in saline using an ultrasonic homogenizer (BioLogics, Model 3000, Manassas, Va.). Osmotic minipump implantation: ALZET osmotic minipumps (Model 2004, […], 28 days) were implanted subcutaneously under isoflurane anesthesia as previously described [S2]. Osmotic minipumps were rotated under the skin two to three times per week. Behavioral Assays: All experiments were approved by the Institutional Animal Care and Use Committee (IACUC) at the New York Psychiatric Institute (NYSPI). […] Videos were scored using ANY-maze behavior tracking software (Stoelting, Wood Dale, Ill.). […]"}, "[3]": {"system": "BALB/cJRj mice", "test": "Novelty suppressed feeding (NSF), acute anxiolytic-like effect", "format": "in vivo", "conditions": "male BALB/cJRj; i.p. 45 min before testing; RS67333 1.5, diazepam 1.5, fluoxetine 18 mg/kg", "procedure": "as §1, §2, §3\nThe NSF is a conflict test that elicits competing motivations: the drive to eat and the fear of venturing into the center of a brightly lit arena. The latency to begin eating is used as an index of anxiety/depression-like behavior, because classical anxiolytic drugs as well as chronic antidepressants decrease this measure. The NSF test was carried out during a 10 min period as previously described (A-S12). Briefly, the testing apparatus consisted of a plastic box (50×50×20 cm), the floor of which was covered with approximately 2 cm of wooden bedding. Twenty-four hours prior to behavioral testing, all food was removed from the home cage. At the time of testing, a single pellet of food (regular chow) was placed on a white paper platform positioned in the center of the box. Each animal was placed in a corner of the box, and a stopwatch was immediately started. The latency to eat (defined as the mouse sitting on its haunches and biting the pellet with the use of forepaws) was timed. Immediately afterwards, the animal was transferred to its home cage, and the amount of food consumed by the mouse in the subsequent 5 min was measured, serving as a control for change in appetite as a possible confounding factor."}, "[4]": {"test": "Chronic corticosterone (CORT) model: body weight", "format": "in vivo, mice", "conditions": "male C57BL/6NTac; Flx 18 mg/kg/day in drinking water or RS-67,333 1.5 mg/kg/day in osmotic minipumps for 3 weeks prior to CORT", "procedure": "This chronic CORT elevation dysregulates the hypothalamic-pituitary-adrenal axis (HPA) in a manner similar to that observed in clinical depression. The dose and duration of CORT treatment was selected based on previous studies. CORT (35 μg/ml, equivalent to about 5 mg/kg/day) dissolved in 0.45% hydroxypropyl-o-cyclodextrin (0-CD) or vehicle (VEH) (0.45% j-CD) was available ad libitum in the drinking water in opaque bottles to protect it from light. VEH- and CORT-treated water was changed every 3 days to prevent possible degradation. Contextual Fear Conditioning (CFC): A 3-shock CFC procedure was administered as previously published. Briefly, mice were placed into context A and administered 3 2-s shocks (0.75 mA) at 180 s, 240 s or 300 s following placement into context A. Mice were removed from the context 15 s following the termination of shock (at 317 s). For context retrieval, mice were placed back into context A for 300 s. Electrophysiology: Electrophysiology was conducted as previously described. Statistical Analysis: Results from data analyses are expressed as means±SEM. Alpha was set to 0.05 for all analyses. Data were analyzed using GraphPad Prism v7.0 or v8.0. For all experiments, unless otherwise noted, one- or two-way ANOVAs with repeated-measures were applied to the data as appropriate. […] Videos were scored using ANY-maze behavior tracking software (Stoelting, Wood Dale, Ill.). […]"}}, "note": "Structures can show the parent of a compound that is named as a salt.", "data": [{"smiles": "CNCCC(Oc1ccc(C(F)(F)F)cc1)c1ccccc1", "note": "(centres unmarked) [fluoxetine, Fluoxetine hydrochloride]", "values": [{"measurement": "anxiety-like behavior", "setting": "[1]", "result": "did not affect anxiety-like behavior"}, {"measurement": "time spent in the open arms of the EPM vs VEH+Veh", "setting": "[2]", "result": "did not alter"}, {"measurement": "entries into the open arms of the EPM vs CORT+Veh", "setting": "[2]; listed as Flx, hydrochloride", "result": "significantly more entries"}, {"measurement": "latency to feed (NSF) vs vehicle", "setting": "[3]", "result": "anxiogenic-like effect"}, {"measurement": "CORT-induced increase in body weight", "setting": "[4]", "result": "attenuated"}]}]}
